Results on seven compounds are retold here after publication PMC5933747 (PLoS ONE, 2018).

Some results are limits rather than exact numbers.

One series addresses human NaV1.5 (Homo sapiens, UniProt Q14524). As to the kind of experiment: PatchXpress (PX) automated electrophysiology, human NaV1.5. The series is classed as cell-based. Conditions: PX platform; at least ten cells, two to three data points per concentration.
In a further series the target is human NaV1.4 (Homo sapiens, UniProt P35499). The series is described as follows: PatchXpress (PX) automated electrophysiology, human NaV1.4. Particulars: PX platform; at least ten cells, two to three data points per concentration. Format: cell-based. The procedure:
Human NaV (hNaV) stably transfected cell lines in HEK293 or CHO backgrounds and cell culture methods were as previously described. hNaV1.1-hNaV1.7 cells were obtained from Eurofins Pharma Discovery Services (St. Charles, MO), and hNaV1.8 cells were generated in house. Whole cell patch clamp, PatchXpress, and IWQ electrophysiology voltage protocols as well as DRG neuron isolation were carried out as previously described. NaV1.7-NaV1.5 chimeras were generated and evaluated in BacMam transduced U2-OS cells on the IWQ platform as previously described.

Series [1] addresses T1, human NaV1.7 (Homo sapiens, UniProt Q15858).
In series [2] the target is T1, human NaV1.7. This is another data set of the same source.
The target in series [3] is T1, human NaV1.7. As to the kind of experiment: 125I-ProTx-II radioligand binding to live HEK293 cells stably expressing human NaV1.7. Particulars: 0.5 nM 125I-ProTx-II, 3 h, increasing concentrations of cold peptide.
Another series has as its target wild-type NaV1.5 (Homo sapiens, UniProt Q14524).
Series [4] has as its target T1, human NaV1.7. The source holds these as a separate data set.
The target in series [5] is T1, human NaV1.7. This is another data set of the same source.

human NaV1.4, sequence (P35499 whole entry): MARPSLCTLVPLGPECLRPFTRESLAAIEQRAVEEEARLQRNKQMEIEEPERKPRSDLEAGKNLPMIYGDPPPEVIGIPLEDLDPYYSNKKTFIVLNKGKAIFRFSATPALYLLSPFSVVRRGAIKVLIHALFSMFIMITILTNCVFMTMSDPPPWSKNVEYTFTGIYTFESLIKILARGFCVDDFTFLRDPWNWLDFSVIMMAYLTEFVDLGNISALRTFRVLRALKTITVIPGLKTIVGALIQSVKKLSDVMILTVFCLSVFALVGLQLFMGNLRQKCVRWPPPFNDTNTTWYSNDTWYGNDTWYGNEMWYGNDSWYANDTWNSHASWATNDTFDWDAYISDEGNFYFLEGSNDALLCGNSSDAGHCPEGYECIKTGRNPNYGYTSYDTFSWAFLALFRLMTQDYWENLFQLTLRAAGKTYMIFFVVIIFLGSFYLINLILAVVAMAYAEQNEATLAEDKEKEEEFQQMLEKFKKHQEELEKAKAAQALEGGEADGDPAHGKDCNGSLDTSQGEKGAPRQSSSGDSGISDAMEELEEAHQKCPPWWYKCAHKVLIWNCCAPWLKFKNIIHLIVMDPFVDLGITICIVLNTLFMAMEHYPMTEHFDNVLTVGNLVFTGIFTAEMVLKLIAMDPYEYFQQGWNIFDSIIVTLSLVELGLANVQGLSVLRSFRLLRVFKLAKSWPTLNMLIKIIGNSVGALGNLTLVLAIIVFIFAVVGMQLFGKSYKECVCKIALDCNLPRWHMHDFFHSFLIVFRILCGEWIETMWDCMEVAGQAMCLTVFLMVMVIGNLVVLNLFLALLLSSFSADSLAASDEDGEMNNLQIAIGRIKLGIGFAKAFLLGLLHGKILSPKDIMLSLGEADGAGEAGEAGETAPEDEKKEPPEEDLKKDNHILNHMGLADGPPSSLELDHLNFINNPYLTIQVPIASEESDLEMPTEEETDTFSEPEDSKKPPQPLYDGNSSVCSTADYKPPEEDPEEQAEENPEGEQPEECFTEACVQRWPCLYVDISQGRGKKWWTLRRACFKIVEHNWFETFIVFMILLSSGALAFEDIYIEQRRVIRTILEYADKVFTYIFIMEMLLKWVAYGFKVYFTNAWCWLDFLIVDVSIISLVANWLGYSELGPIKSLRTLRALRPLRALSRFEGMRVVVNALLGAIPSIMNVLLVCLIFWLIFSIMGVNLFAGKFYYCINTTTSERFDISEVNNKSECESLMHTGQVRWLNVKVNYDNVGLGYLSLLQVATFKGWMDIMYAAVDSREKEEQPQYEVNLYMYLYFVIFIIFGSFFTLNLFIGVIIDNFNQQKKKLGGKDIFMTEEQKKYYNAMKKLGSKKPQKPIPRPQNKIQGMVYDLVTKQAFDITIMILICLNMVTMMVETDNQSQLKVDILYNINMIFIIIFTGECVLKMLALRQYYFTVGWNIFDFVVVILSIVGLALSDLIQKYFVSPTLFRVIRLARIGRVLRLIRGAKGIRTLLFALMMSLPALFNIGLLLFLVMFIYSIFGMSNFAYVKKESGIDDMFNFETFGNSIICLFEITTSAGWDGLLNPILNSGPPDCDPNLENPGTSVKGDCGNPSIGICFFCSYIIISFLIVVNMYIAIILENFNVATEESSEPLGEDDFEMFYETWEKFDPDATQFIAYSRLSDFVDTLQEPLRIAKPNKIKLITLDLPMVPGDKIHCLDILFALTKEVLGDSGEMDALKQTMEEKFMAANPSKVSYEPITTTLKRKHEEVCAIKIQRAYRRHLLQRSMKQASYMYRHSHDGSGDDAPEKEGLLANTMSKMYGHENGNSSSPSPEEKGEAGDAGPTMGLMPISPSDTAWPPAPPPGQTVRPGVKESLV
human NaV1.5, sequence (Q14524 whole entry): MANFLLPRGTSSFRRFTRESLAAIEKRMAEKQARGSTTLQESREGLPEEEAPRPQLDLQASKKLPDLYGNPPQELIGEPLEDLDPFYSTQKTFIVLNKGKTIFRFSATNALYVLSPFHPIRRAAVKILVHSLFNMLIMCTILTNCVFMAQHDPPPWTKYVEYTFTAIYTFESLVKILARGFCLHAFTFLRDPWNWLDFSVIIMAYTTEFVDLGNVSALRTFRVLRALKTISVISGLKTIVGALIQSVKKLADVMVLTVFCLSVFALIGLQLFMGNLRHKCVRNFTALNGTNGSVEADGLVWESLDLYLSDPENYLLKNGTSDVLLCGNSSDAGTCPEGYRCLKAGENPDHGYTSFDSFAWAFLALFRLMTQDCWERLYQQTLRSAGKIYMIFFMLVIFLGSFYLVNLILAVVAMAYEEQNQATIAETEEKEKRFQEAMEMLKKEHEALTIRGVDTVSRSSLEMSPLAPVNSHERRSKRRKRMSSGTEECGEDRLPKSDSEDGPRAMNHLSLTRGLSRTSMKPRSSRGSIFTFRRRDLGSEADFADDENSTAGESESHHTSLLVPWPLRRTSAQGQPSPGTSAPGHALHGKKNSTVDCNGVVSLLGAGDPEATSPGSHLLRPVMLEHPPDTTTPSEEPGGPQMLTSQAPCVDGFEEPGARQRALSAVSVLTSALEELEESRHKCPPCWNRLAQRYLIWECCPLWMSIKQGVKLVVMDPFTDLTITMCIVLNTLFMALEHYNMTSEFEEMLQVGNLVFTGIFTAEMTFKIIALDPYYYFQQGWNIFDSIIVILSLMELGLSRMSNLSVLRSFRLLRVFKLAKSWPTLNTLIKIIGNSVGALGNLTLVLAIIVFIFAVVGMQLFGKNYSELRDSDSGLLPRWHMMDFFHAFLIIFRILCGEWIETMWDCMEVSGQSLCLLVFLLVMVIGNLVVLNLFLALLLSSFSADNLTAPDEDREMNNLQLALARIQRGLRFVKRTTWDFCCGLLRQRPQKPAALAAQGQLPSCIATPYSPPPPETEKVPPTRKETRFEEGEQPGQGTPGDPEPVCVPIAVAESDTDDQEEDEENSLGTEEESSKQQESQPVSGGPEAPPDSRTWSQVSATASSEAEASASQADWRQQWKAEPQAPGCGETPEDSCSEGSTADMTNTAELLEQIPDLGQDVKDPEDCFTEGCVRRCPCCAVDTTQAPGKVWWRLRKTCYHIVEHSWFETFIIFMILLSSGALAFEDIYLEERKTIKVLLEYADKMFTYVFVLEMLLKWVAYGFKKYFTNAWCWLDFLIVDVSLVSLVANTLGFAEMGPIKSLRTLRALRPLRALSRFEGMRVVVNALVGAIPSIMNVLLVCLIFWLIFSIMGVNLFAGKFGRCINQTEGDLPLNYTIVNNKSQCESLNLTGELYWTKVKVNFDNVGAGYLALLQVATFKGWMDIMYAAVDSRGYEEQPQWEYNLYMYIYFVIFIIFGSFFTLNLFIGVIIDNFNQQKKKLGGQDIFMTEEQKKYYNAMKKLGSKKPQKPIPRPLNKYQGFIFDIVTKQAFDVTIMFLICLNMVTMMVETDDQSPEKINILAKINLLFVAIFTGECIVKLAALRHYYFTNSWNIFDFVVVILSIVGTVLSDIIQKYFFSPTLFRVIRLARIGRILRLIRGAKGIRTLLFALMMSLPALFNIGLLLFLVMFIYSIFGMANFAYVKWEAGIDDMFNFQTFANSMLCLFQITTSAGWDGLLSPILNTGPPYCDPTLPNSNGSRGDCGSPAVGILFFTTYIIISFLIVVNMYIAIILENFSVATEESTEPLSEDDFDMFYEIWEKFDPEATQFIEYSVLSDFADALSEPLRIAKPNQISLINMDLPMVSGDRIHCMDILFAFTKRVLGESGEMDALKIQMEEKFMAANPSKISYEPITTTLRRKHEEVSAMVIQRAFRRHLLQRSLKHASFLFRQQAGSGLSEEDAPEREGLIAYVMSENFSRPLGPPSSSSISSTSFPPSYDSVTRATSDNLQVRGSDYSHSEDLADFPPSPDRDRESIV
JzTx-V(1–29), sequence (Q2PAY4 54-83): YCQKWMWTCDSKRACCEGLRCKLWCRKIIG

Usually IC50 stands for the concentration that gives 50% inhibition. Take `C#CC[C@@H]1NC(=O)[C@H](CCCNC(=N)N)NC(=O)[C@H](CCCCN)NC(=O)[C@H](CO)NC(=O)[C@H](CC(=O)O)NC(=O)[C@@H]2CSSC[C@@H]3NC(=O)[C@H](CCCNC(=N)N)NC(=O)[C@H](CC(C)C)NC(=O)CNC(=O)[C@H](CCC(=O)O)NC(=O)[C@H](CSSC[C@H](NC(=O)[C@@H](N)Cc4ccc(O)cc4)C(=O)N[C@@H](CCC(N)=O)C(=O)N[C@@H](CCCCN)C(=O)N[C@@H](Cc4c[nH]c5ccccc45)C(=O)N[C@@H](CCCC)C(=O)N[C@@H](Cc4c[nH]c5ccccc45)C(=O)N[C@@H]([C@@H](C)O)C(=O)N2)NC(=O)[C@H](CSSC[C@@H](C(=O)N[C@@H](CCCNC(=N)N)C(=O)N[C@@H](CCCCN)C(=O)N[C@@H](CCC(=O)O)C(=O)N[C@H](C(N)=O)[C@@H](C)CC)NC(=O)[C@H](Cc2c[nH]c4ccccc24)NC(=O)[C@H](CC(C)C)NC(=O)[C@H](CCCCN)NC3=O)NC1=O` [Peptide 6, [Nle6;Pra14;Glu28]JzTx-V(1–29)]: the IC50 against human NaV1.5 came out at 3500 nM; against human NaV1.4, 110 nM.
Consider “JzTx-V(1–29) (from UniProt Q2PAY4 54-83) (peptide)”, for which, in the series with human NaV1.7 [1], the potency (IC50) of inhibition of NaV1.7 by manual patch clamp, voltage protocol with 20% of channels inactivated is 0.15 nM. Also, the NaV1.7 IC50 (nM), block of human NaV1.7 current in HEK293 cells, PatchXpress (PX) platform in the series with human NaV1.7 [2] worked out at 0.6 nM.
`C#CC[C@@H]1NC(=O)[C@@H]2CSSC[C@H](NC(=O)[C@@H](N)Cc3ccc(O)cc3)C(=O)N[C@@H](CCC(N)=O)C(=O)N[C@@H](CCCCN)C(=O)N[C@@H](Cc3c[nH]c4ccccc34)C(=O)N[C@@H](CCCC)C(=O)N[C@@H](Cc3c[nH]c4ccccc34)C(=O)N[C@@H]([C@@H](C)O)C(=O)N[C@H]3CSSC[C@H](NC(=O)[C@H](CCCNC(=N)N)NC(=O)[C@H](CC(C)C)NC(=O)CNC1=O)C(=O)N[C@@H](CCCCN)C(=O)N[C@@H](CC(C)C)C(=O)N[C@@H](Cc1c[nH]c4ccccc14)C(=O)N[C@H](C(=O)N[C@@H](CCCNC(=N)N)C(=O)N[C@@H](CCCCN)C(=O)N[C@@H](CCC(=O)O)C(=O)N[C@H](C(N)=O)[C@@H](C)CC)CSSC[C@H](NC(=O)[C@H](C)NC(=O)[C@H](CCCNC(=N)N)NC(=O)[C@H](CCCCN)NC(=O)[C@H](CO)NC(=O)[C@H](CC(=O)O)NC3=O)C(=O)N2` [Peptide 7, [Nle6;Pra17;Glu28]JzTx-V(1–29)]: the IC50 at human NaV1.5 is 3100 nM; against human NaV1.4, 130 nM.
In the case of `C#CC[C@@H]1NC(=O)[C@H](CC(=O)O)NC(=O)[C@@H]2CSSC[C@@H]3NC(=O)[C@H](CCCNC(=N)N)NC(=O)[C@H](CC(C)C)NC(=O)CNC(=O)[C@H](CCC(=O)O)NC(=O)[C@H](CSSC[C@H](NC(=O)[C@@H](N)Cc4ccc(O)cc4)C(=O)N[C@@H](CCC(N)=O)C(=O)N[C@@H](CCCCN)C(=O)N[C@@H](Cc4c[nH]c5ccccc45)C(=O)N[C@@H](CCCC)C(=O)N[C@@H](Cc4c[nH]c5ccccc45)C(=O)N[C@@H]([C@@H](C)O)C(=O)N2)NC(=O)[C@H](CSSC[C@@H](C(=O)N[C@@H](CCCNC(=N)N)C(=O)N[C@@H](CCCCN)C(=O)N[C@@H](CCC(=O)O)C(=O)N[C@H](C(N)=O)[C@@H](C)CC)NC(=O)[C@H](Cc2c[nH]c4ccccc24)NC(=O)[C@H](CC(C)C)NC(=O)[C@H](CCCCN)NC3=O)NC(=O)[C@H](C)NC(=O)[C@H](CCCNC(=N)N)NC(=O)[C@H](CCCCN)NC1=O` [Peptide 5, [Nle6;Pra11;Glu28]JzTx-V(1–29)], the IC50 at human NaV1.5 was 6000 nM; on human NaV1.4, 194 nM.
The corresponding values for `C#CC[C@H](N)C(=O)N[C@H]1CSSC[C@@H]2NC(=O)[C@@H]3CSSC[C@@H](C(=O)N[C@@H](CCCNC(=N)N)C(=O)N[C@@H](CCCCN)C(=O)N[C@@H](CCC(=O)O)C(=O)N[C@H](C(N)=O)[C@@H](C)CC)NC(=O)[C@H](Cc4c[nH]c5ccccc45)NC(=O)[C@H](CC(C)C)NC(=O)[C@H](CCCCN)NC(=O)[C@H](CSSC[C@H](NC(=O)[C@H]([C@@H](C)O)NC(=O)[C@H](Cc4c[nH]c5ccccc45)NC(=O)[C@H](CCCC)NC(=O)[C@H](Cc4c[nH]c5ccccc45)NC(=O)[C@H](CCCCN)NC(=O)[C@H](CCC(N)=O)NC1=O)C(=O)N[C@@H](CC(=O)O)C(=O)N[C@@H](CO)C(=O)N[C@@H](CCCCN)C(=O)N[C@@H](CCCNC(=N)N)C(=O)N[C@@H](C)C(=O)N3)NC(=O)[C@H](CCCNC(=N)N)NC(=O)[C@H](CC(C)C)NC(=O)CNC(=O)[C@H](CCC(=O)O)NC2=O` [Peptide 4, [Pra1;Nle6;Glu28]JzTx-V(1–29)] are 4600 nM and 89 nM.
On to “HwTx-IV (ECLEIFKACNPSNDQCCKSSKLVCSRKTRWCKYQIGK)”, for which, in the series with human NaV1.7 [3], the “competition for 125I-ProTx-II binding” value is listed as “competed”.
Compound Pra-[Nle6;Glu28]JzTx-V(1–29) (peptide) had an IC50 of block of wild-type NaV1.5, IWQ platform (chimera panel) with wild-type NaV1.5 above 3000 nM. The IC50 of block of wild-type NaV1.7, IWQ platform (chimera panel) in the series with human NaV1.7 [4] amounted to 50 nM. The compound also returned a NaV1.7 IC50 (nM), block of human NaV1.7 current, PatchXpress (PX) platform with human NaV1.7 [2] of 0.5 nM. Further, the IC50 of block of human NaV1.7, manual patch clamp, voltage protocol with 20% of NaV channels inactivated in the series with human NaV1.7 [5] turned out to be 0.58 nM.
